Molecular target: human CRTH2 (Homo sapiens (Human), UniProt Q9Y5Y4)
Assay: Calcium Flux Assay Using Fluorometric Imaging Plate Reader (FLIPR)
Type: cell-based
Conditions: CHO-K1 cells with G-alpha 16 and human CRTH2; inhibition of DK-PGD2 ligand-induced Ca2+ flux
Protocol: Calcium Flux Assay Using Fluorometric Imaging Plate Reader (FLIPR)
Cell Culture Conditions: CHO-K1 cells previously transfected with G-alpha 16 were subsequently transfected with the human CRTH2 receptor and the neomycin resistance gene. Following selection in 800 μg/mL G418 (geneticin), individual clones were assayed for their receptor expression based on staining with an anti human CRTH2 IgG, followed by assaying for their response to 13,14-dihydro-15-keto Prostaglandin D2 (DK-PDG2) (ligand) in the Ca^2+ Flux assay. Positive clones were then cloned by limiting dilution cloning. The transfected cells were cultured in Ham's F-12 medium supplemented with 10% fetal bovine serum, 2 mM glutamine, 100 U/mL penicillin/100 μg/mL streptomycin, 200 μg/mL hygromycin B, and 800 μg/mL G418 (geneticin). Cells were harvested with trypsin-EDTA (trypsin-ethylenediaminetetraacetic acid) and counted using ViaCount® reagent (from Guava Technologies, Inc. which contains two DNA-binding dyes that enable the reagent user to distinguish between viable and non-viable cells). The cell suspension volume was adjusted to 2.5×10^5 cells/mL with complete growth media. Aliquots of 50 μL were dispensed into BD Falcon™ 384 well black/clear microplates (from BD Biosciences, a division of Becton, Dickinson and Company) and the microplates were placed in a 37° C. CO2 incubator overnight. The following day, the microplates were used in the assay.
Loading Buffer containing dye (from the FLIPR® Calcium 3 Assay Kit from Molecular Devices, a division of MDS Analytical Technologies and MDS Inc.) was prepared by dissolving the contents of one bottle into 200 mL Hank's Balanced Salt Solution containing 20 mM HEPES (4-(2-hydroxyethyl)-1-piperazineethanesulfonic acid) and 2.5 mM probenecid. Growth media was removed from the cell plates and 25 μL of Hank's Balanced Salt Solution (HBSS) containing 20 mM HEPES, 0.05% BSA and 2.5 mM probenecid was added to each well followed by 25 μL of diluted dye using a Multidrop dispenser. The plates were then incubated for 1 hour at 37° C.
During the incubation, test compound plates were prepared by adding 90 μL of HBSS/20 mM HEPES/0.005% BSA buffer to the 2 μL of serial diluted compounds. To prepare serial diluted compounds, 20 mM stocks of compounds were dissolved in 100% DMSO. The compound dilution plate was set up as follows: well #1 received 5 μL of compound plus 10 μL of DMSO. Wells 2-10 received 10 μL of DMSO. 5 μL was mixed and transferred from well #1 into well #2. 1:3 serial dilutions were continued out 10 steps. 2 μL of diluted compound was transferred into duplicate wells of a 384 well “assay plate” and then 90 μL of buffer was added.
After incubation, both the cell and “assay plate” plates were brought to the fluorometric imaging plate reader (FLIPR®) and 20 μL of the diluted compounds were transferred to the cell plates by the FLIPR®. Plates were then incubated for 1 hour at room temperature. […] During the assay, fluorescence readings were taken simultaneously from all 384 wells of the cell plate every 1.5 seconds. Five readings were taken to establish a stable baseline, then 20 μL of sample was rapidly (30 μL/sec) and simultaneously added to each well of the cell plate. The fluorescence was continuously monitored before, during and after sample addition for a total elapsed time of 100 seconds. Responses (increase in peak fluorescence) in each well following agonist addition were determined. The initial fluorescence reading from each well, prior to ligand stimulation, was used as a zero baseline value for the data from that well. The responses were expressed as % inhibition of the buffer control.

human CRTH2, sequence (Q9Y5Y4 whole entry): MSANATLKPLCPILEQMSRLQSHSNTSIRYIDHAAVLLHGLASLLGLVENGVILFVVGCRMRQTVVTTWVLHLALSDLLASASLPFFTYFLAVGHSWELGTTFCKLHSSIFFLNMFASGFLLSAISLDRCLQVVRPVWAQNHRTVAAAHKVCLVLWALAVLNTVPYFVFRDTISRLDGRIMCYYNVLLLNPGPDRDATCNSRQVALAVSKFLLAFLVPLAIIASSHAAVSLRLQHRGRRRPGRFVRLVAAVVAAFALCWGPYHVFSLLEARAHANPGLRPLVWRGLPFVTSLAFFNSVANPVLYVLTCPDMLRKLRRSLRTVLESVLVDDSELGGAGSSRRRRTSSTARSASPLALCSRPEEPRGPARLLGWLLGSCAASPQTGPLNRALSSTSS

SMILES | IC50
Cc1c(Cl)cccc1NS(=O)(=O)c1ccc(-c2c(C)c(CC(=O)O)cc3ccc(Cl)cc23)cc1 [Example 31, {6-Chloro-4-[4-(3-chloro-2-methyl-phenylsulfamoyl)-phenyl]-3-methyl-naphthalen-2-yl}-acetic acid] | 6.7 nM
Cc1c(CC(=O)O)cc2ccc(Cl)cc2c1-c1ccc(S(=O)(=O)Nc2cccc(Cl)c2)cc1 [Example 32, {6-Chloro-4-[4-(3-chloro-phenylsulfamoyl)-phenyl]-3-methyl-naphthalen-2-yl}-acetic acid] | 4.7 nM
Cc1c(CC(=O)O)cc2ccc(Cl)cc2c1-c1ccc(S(=O)(=O)N2CCCCC2)cc1 [Example 34, {6-Chloro-3-methyl-4-[4-(piperidine-1-sulfonyl)-phenyl]-naphthalen-2-yl}-acetic acid] | 0.9 nM
CCN(CC)S(=O)(=O)c1ccc(-c2c(C)c(CC(=O)O)cc3ccc(Cl)cc23)cc1 [Example 35, [6-Chloro-4-(4-diethylsulfamoyl-phenyl)-3-methyl-naphthalen-2-yl]-acetic acid] | 0.5 nM
Cc1c(CC(=O)O)cc2ccc(Cl)cc2c1-c1ccc(S(=O)(=O)NC2CCCCC2)cc1 [Example 36, [6-Chloro-4-(4-cyclohexylsulfamoyl-phenyl)-3-methyl-naphthalen-2-yl]-acetic acid] | 6.1 nM
Cc1c(CC(=O)O)cc2ccc(Cl)cc2c1-c1ccc(S(=O)(=O)NC(C)C)cc1 [Example 37, [6-Chloro-4-(4-isopropylsulfamoyl-phenyl)-3-methyl-naphthalen-2-yl]-acetic acid] | 1.5 nM
Cc1c(CC(=O)O)cc2ccc(Cl)cc2c1-c1ccc(S(=O)(=O)NCc2ccccc2)cc1 [Example 38, [4-(4-Benzylsulfamoyl-phenyl)-6-chloro-3-methyl-naphthalen-2-yl]-acetic acid] | 1.6 nM
COc1ccc(CNS(=O)(=O)c2ccc(-c3c(C)c(CC(=O)O)cc4ccc(Cl)cc34)cc2)cc1 [Example 39, {6-Chloro-4-[4-(4-methoxy-benzylsulfamoyl)-phenyl]-3-methyl-naphthalen-2-yl}-acetic acid] | 13.2 nM
COc1ccc(CN(C(C)C)S(=O)(=O)c2ccc(-c3c(C)c(CC(=O)O)cc4ccc(Cl)cc34)cc2)cc1 [Example 40, (6-Chloro-4-{4-[isopropyl-(4-methoxy-benzyl)-sulfamoyl]-phenyl}-3-methyl-naphthalen-2-yl)-acetic acid] | 3.1 nM
Cc1ccc(NS(=O)(=O)c2ccc(-c3c(C)c(CC(=O)O)cc4ccc(F)cc34)cc2)cc1 [Example 42, [6-Fluoro-3-methyl-4-(4-p-tolylsulfamoyl-phenyl)-naphthalen-2-yl]-acetic acid] | 0.9 nM
Cc1c(Cl)cccc1NS(=O)(=O)c1ccc(-c2c(C)c(CC(=O)O)cc3ccc(F)cc23)cc1 [Example 44, {4-[4-(3-Chloro-2-methyl-phenylsulfamoyl)-phenyl]-6-fluoro-3-methyl-naphthalen-2-yl}-acetic acid] | 0.9 nM
Cc1c(CC(=O)O)cc2ccc(F)cc2c1-c1ccc(S(=O)(=O)Nc2cccc(Cl)c2)cc1 [Example 45, {4-[4-(3-Chloro-phenylsulfamoyl)-phenyl]-6-fluoro-3-methyl-naphthalen-2-yl}-acetic acid] | 1.5 nM
Cc1c(CC(=O)O)cc2ccc(F)cc2c1-c1ccc(S(=O)(=O)N2CCCC2)cc1 [Example 46, {6-Fluoro-3-methyl-4-[4-(pyrrolidine-1-sulfonyl)-phenyl]-naphthalen-2-yl}-acetic acid] | 0.7 nM
Cc1c(CC(=O)O)cc2ccc(F)cc2c1-c1ccc(S(=O)(=O)N2CCCCC2)cc1 [Example 47, {6-Fluoro-3-methyl-4-[4-(piperidine-1-sulfonyl)-phenyl]-naphthalen-2-yl}-acetic acid] | 4.1 nM
CCN(CC)S(=O)(=O)c1ccc(-c2c(C)c(CC(=O)O)cc3ccc(F)cc23)cc1 [Example 48, [4-(4-Diethylsulfamoyl-phenyl)-6-fluoro-3-methyl-naphthalen-2-yl]-acetic acid] | 1.8 nM
Cc1c(CC(=O)O)cc2ccc(F)cc2c1-c1ccc(S(=O)(=O)NC2CCCCC2)cc1 [Example 49, [4-(4-Cyclohexylsulfamoyl-phenyl)-6-fluoro-3-methyl-naphthalen-2-yl]-acetic acid] | 1.5 nM
Cc1c(CC(=O)O)cc2ccc(F)cc2c1-c1ccc(S(=O)(=O)NC(C)C)cc1 [Example 50, [6-Fluoro-4-(4-isopropylsulfamoyl-phenyl)-3-methyl-naphthalen-2-yl]-acetic acid] | 1.7 nM
Cc1c(CC(=O)O)cc2ccc(F)cc2c1-c1ccc(S(=O)(=O)NCc2ccccc2)cc1 [Example 51, [4-(4-Benzylsulfamoyl-phenyl)-6-fluoro-3-methyl-naphthalen-2-yl]-acetic acid] | 0.4 nM
COc1ccc(CNS(=O)(=O)c2ccc(-c3c(C)c(CC(=O)O)cc4ccc(F)cc34)cc2)cc1 [Example 52, {6-Fluoro-4-[4-(4-methoxy-benzylsulfamoyl)-phenyl]-3-methyl-naphthalen-2-yl}-acetic acid] | 3.2 nM
COc1ccc(CN(C(C)C)S(=O)(=O)c2ccc(-c3c(C)c(CC(=O)O)cc4ccc(F)cc34)cc2)cc1 [Example 53, (6-Fluoro-4-{4-[isopropyl-(4-methoxy-benzyl)-sulfamoyl]-phenyl}-3-methyl-naphthalen-2-yl)-acetic acid] | 1.3 nM
Cc1c(CC(=O)O)cc2ccc(Cl)cc2c1-c1ccc(S(=O)(=O)NCCO)cc1 [Example 56, {6-Chloro-4-[4-(2-hydroxy-ethylsulfamoyl)-phenyl]-3-methyl-naphthalen-2-yl}-acetic acid] | 5.6 nM
Cc1c(CC(=O)O)cc2ccc(F)cc2c1-c1ccc(S(=O)(=O)NCCO)cc1 [Example 57, {6-Fluoro-4-[4-(2-hydroxy-ethylsulfamoyl)-phenyl]-3-methyl-naphthalen-2-yl}-acetic acid] | 6.1 nM

— patent US9000044B2, “Substituted naphthylacetic acids” (Hoffmann-La Roche Inc., priority 2012, dated 2015)
